Source: patent publication US20230255972A1, “PYRIMIDINE COMPOUND-CONTAINING COMBINATION TO BE USED IN TUMOR TREATMENT” (TAIHO PHARMACEUTICAL CO., LTD., priority 2020, published 2023)
Like-named read-outs stand apart in the source and are kept apart here.

How the values were obtained:
[1] = system: NCI-N87-Luc; assay: Antitumor effect (in vivo) on direct brain transplantation models of NCI-N87-luc; set-up: species or system nude mouse; conditions: 25 mg/kg/day po once a day, Days 1-21
From the text: Test Example 11 Antitumor Effect Confirmation Test (In Vivo) on Direct Brain Transplantation Models, into which Luciferase Gene-Introduced HER2 Expressing Cell Line (NCI-N87-luc) is Directly Transplanted
In order to confirm the antitumor effects of a test compound on direct brain transplantation models, NCI-N87-Luc, which was obtained by introducing a Luciferase gene into NCI-N87 that was a human stomach cancer tumor cell line purchased from American Type Culture Collection, was used.
The NCI-N87-Luc cells were re-suspended in PBS in a concentration of 6.25×10^7 cells/mL.
A microdrill was used to drill a hole in the skull, and then, using a needle, a manipulator, and a syringe pump, 4 μL of the cell suspension was transplanted into the brain at a rate of 0.8 μL/min.
As a reference of the amount of brain tumor, approximately 3 weeks after the transplantation, Total Flux (Photon/sec) was measured in all of the survival cases, using IVIS (PerkinElmer, Inc., model: Lumina II). Based on the obtained results, 6 animals were assigned to each group, using the grouping program of MiSTAT (Ver. 2.00).
The test compound was orally administered to the mice once a day, every day, for 21 days from the following day of the grouping (Days 1-21). […]
The value obtained by logarithmic transformation (Log 10) of the total flux on Day 22 in each group was analyzed by a Dunnett's test or a Student-t test. […]

[2] = target: T1, EGFR [D770_N771insNPG] (Homo sapiens, UniProt P00533, INS770NPG); assay: Phosphorylation activity inhibitory effect (in vitro) on mutant EGFR D770_N771insNPG; format: biochemical
T1 construct: purchased Carna Biosciences, Inc
T1 sequence (P00533 with tags, fused parts or gaps INS770NPG limits assumed): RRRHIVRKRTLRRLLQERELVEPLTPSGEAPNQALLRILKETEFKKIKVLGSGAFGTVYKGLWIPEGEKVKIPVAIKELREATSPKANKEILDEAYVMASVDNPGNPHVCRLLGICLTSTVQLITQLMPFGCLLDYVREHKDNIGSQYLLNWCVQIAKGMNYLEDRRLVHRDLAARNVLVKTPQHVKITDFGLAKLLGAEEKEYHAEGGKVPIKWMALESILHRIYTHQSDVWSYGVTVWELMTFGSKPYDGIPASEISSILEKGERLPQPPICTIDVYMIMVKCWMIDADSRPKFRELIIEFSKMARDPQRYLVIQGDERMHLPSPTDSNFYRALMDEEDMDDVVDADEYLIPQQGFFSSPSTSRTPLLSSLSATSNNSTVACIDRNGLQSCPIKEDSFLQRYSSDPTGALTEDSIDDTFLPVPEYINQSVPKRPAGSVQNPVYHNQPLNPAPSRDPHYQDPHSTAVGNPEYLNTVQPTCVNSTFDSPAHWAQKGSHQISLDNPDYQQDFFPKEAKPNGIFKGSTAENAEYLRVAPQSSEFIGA
Method: (§1) Test Example 6 Measurement of Phosphorylation Activity Inhibitory Effect (In Vitro) on Wild-Type and Mutant EGFR
(§2) The measurement of the in vitro inhibitory activity of a compound against wild-type and mutant EGFR was outsourced to Carna Biosciences, Inc. (Kinase Profiling Book, https://www.carnabio.com/japanese/product/search.cgi?mode=profiling).
(§3) Specifically, first, the pyrimidine compound of the present invention was diluted stepwise with dimethyl sulfoxide (DMSO). […] To the reaction solution, Termination Buffer was added, so as to terminate the kinase reaction. Finally, using LabChip™ EZ Reader II (PerkinElmer), an unphosphorylated substrate peptide (S) and a phosphorylated peptide (P) were separated and detected according to microchannel capillary electrophoresis.
(§4) As the pyrimidine compound of the present invention, the compound of Example 11 (Example compound 11) was used.

[3] = target: T2, EGFR (Homo sapiens, UniProt P00533); assay: Phosphorylation activity inhibitory effect (in vitro) on wild-type EGFR; format: biochemical
T2 construct: purchased Carna Biosciences, Inc
T2 sequence (P00533 25-1210): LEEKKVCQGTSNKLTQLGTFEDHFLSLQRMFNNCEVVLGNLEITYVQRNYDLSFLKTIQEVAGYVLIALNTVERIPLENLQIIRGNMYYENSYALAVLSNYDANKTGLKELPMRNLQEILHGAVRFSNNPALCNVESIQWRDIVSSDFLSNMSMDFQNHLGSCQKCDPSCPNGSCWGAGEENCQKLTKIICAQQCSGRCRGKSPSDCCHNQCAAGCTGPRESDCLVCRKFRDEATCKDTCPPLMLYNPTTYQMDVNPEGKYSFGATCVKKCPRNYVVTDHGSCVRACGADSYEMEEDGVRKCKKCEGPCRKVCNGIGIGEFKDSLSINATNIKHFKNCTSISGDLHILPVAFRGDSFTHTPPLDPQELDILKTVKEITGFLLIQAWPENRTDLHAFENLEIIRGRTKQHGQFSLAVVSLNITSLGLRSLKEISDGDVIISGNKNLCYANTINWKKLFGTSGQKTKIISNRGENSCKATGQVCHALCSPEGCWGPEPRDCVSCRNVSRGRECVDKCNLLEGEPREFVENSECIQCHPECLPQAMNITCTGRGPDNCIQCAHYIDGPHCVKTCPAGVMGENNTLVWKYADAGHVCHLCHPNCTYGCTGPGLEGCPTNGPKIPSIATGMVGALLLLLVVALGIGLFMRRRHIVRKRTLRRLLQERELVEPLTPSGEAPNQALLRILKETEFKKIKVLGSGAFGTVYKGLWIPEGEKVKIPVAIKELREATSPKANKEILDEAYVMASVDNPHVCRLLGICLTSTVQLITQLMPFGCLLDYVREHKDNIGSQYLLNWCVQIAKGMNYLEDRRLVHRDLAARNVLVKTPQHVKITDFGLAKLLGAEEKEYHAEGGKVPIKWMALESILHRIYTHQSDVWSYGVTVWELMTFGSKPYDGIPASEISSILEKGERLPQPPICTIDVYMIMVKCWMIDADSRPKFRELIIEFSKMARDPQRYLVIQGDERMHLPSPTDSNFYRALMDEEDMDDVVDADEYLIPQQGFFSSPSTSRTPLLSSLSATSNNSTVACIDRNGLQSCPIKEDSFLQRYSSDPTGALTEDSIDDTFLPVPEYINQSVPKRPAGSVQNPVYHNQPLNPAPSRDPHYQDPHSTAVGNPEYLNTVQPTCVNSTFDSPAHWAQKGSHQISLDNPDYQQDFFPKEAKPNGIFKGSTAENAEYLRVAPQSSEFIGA
Method: as §1, §2, §3, §4

[4] = target: T3, EGFR [d746-750] (Homo sapiens, UniProt P00533, DEL746-750); assay: Phosphorylation activity inhibitory effect (in vitro) on mutant EGFR d746-750; format: biochemical
T3 construct: purchased Carna Biosciences, Inc
T3 sequence (P00533 with tags, fused parts or gaps DEL746-750): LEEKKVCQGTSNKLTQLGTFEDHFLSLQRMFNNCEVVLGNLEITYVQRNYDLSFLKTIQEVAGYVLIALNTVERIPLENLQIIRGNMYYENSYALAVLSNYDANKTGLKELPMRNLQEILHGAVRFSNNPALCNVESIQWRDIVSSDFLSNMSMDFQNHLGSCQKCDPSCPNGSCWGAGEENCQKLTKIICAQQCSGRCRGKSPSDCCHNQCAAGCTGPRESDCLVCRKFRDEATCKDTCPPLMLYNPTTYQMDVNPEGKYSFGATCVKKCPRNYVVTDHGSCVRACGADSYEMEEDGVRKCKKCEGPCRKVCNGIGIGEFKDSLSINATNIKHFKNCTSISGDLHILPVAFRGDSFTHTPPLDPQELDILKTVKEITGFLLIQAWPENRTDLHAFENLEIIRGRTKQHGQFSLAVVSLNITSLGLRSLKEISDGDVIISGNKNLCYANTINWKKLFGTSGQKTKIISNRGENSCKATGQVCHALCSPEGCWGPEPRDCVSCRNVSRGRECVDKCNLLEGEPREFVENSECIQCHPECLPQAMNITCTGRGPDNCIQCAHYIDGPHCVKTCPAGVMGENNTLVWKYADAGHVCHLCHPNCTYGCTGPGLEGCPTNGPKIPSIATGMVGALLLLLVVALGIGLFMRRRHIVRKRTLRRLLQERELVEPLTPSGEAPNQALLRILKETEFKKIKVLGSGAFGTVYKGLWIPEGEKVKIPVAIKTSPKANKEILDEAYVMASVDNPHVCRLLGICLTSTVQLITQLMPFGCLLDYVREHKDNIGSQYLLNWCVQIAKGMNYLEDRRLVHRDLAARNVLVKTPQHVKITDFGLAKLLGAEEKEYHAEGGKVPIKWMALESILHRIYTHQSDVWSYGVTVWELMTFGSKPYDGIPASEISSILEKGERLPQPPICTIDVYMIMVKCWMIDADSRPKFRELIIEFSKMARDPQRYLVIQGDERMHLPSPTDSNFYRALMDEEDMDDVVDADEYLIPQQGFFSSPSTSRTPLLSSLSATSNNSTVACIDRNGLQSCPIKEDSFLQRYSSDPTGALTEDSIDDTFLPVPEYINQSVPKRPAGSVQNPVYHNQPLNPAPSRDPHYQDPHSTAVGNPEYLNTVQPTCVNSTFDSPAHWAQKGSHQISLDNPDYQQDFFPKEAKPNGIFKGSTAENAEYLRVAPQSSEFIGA
Method: as §1, §2, §3, §4

[5] = system: SK-BR-3 cells; assay: Growth inhibitory activity against HER2 expressing cell line SK-BR-3; format: cell-based; conditions: Homo sapiens, SK-BR-3, 72 h; 3 days, CellTiter-Glo 2.0
Method: Test Example 3 Measurement of Growth Inhibitory Activity Against HER2 Expressing Cell Line
SK-BR-3 cells as a HER2 overexpressing human breast cancer cell line were suspended in a McCoy's 5a medium (manufactured by Life Technologies) supplemented with 10% fetal bovine serum. The cell suspension was seeded in each well of a 384-well flat-bottom microplate, and was then cultured in a 5% carbon dioxide gas-containing culture vessel at 37° C. for 1 day. Thereafter, the compound of the present invention was dissolved in DMSO, and the pyrimidine compound was diluted to 500 times the final concentration in DMSO. The compound in the DMSO solution was diluted with DMSO solution or the medium used in the suspension of the cells, and the obtained solution was then added to each well of the culture plate so that the final concentration of DMSO was 0.2%. The obtained mixture was further cultured in the 5% carbon dioxide gas-containing culture vessel at 37° C. for 3 days. After completion of the culture for 3 days in the presence of the compound, the cells were counted using CellTiter-Glo 2.0 (manufactured by Promega), and the growth inhibition percentage was then calculated according to the following equation.
Growth inhibitory percentage (%)=(C−T)/(C)×100 […]

[6] = target: T4, EGFR [T790M/L858R] (Homo sapiens, UniProt P00533, L858R/T790M); assay: Phosphorylation activity inhibitory effect (in vitro) on mutant EGFR T790M/L858R; format: biochemical
T4 construct: purchased Carna Biosciences, Inc
T4 sequence (P00533 25-1210 T790M/L858R): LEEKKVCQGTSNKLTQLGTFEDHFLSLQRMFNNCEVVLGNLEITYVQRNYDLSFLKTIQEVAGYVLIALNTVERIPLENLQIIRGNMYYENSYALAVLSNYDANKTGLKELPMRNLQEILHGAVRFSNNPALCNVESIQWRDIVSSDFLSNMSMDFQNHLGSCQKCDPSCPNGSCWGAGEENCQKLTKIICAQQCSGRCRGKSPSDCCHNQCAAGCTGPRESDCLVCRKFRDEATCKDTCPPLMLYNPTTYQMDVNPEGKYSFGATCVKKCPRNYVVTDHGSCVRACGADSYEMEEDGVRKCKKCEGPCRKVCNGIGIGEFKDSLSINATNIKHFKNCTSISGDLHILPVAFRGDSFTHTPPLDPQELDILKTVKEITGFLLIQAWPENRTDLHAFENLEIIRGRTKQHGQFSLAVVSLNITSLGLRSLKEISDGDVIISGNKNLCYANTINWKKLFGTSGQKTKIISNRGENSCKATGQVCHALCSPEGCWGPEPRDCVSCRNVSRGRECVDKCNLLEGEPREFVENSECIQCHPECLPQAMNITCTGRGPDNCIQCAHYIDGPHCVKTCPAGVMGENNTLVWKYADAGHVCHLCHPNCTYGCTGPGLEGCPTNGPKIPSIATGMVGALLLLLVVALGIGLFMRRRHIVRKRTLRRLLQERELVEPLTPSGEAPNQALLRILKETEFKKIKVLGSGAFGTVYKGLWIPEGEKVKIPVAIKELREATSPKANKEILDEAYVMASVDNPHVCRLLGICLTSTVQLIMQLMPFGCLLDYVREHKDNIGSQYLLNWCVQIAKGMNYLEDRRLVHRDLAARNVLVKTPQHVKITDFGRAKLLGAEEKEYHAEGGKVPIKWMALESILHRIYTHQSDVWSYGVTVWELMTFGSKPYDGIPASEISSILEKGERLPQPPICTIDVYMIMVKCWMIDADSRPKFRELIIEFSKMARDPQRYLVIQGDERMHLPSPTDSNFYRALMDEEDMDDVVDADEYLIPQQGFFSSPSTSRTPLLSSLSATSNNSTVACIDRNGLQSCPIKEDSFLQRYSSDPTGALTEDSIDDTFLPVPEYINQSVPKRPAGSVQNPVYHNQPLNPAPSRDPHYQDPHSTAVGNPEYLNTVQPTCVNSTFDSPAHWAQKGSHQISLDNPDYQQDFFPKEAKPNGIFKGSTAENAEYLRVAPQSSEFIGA
Method: as §1, §2, §3, §4

[7] = system: Human stomach cancer-derived tumor cells 4-1ST; conditions: for BWC (%, Mean ± SE) / T/C (%) / TV (mm^3, mean ± SE): Day 15; for BWC (%, Mean ± SE) / T/C (%) / TV (mm^3, mean ± SE) / Number of Deaths: Days 1-14, po
Method: (§5) Human stomach cancer-derived tumor cells 4-1ST were obtained as fragment tumor from the Central Institute for Experimental Animals. Tumor was removed approximately 1 month after subcutaneous transplantation and passage in a 6 week old male nude mouse (BALB/cAJc1-nu/nu, CLEA Japan, Inc.), and a fragment of approximately 2 mm square was prepared. A transplantation needle was filled with one fragment and subcutaneously inserted from around the right last rib of each nude mouse so as to enter the right back. The tumor was pushed out by pressing the inner syringe and thereby transplanted. For the measurement of the tumor size, electronic calipers were used. […] A tumor volume (TV) was calculated from this major axis and minor axis. A relative tumor volume change percentage (T/C) was calculated from the calculated tumor volume. TV and T/C were calculated according to the following equations:
(§6) Tumor Volume (TV)(mm^3)=(Major axis,mm)×(Minor axis,mm)×(Minor axis,mm)/2
(§7) Relative tumor volume change percentage (T/C)(%)=(Mean TV of the administration group)/(Mean TV of a control group)×100
(§8) For the measurement of the body weight, an animal electronic balance was used. A body weight change percentage on the n^th day (BWCn) from the body weight on 0th day (BW0) and the body weight on the n^th day (BWn) was calculated according to the following equation:
(§9) Body weight change percentage BWCn (%)=(BWn−BW0)/BW0×100
(§10) Nude mice having TV of 50 to 300 mm^3 were selected and assigned to groups each involving 6 animals by the equal number method [MiSTAT (ver. 2.1)] such that the means of TV were equal among the groups. […] An untreated group was used as a control.
(§11) The presence or absence of a combinatorial effect and toxicity was judged from the tumor sizes and the body weights on the grouping day (Day 0) and the judgement day (Day 15). During the administration period, the body weight was measured every day for calculation of the amount of the dosing solution.

[8] = system: Human stomach cancer-derived tumor cells 4-1ST; conditions: for BWC (%, Mean ± SE) / T/C (%) / TV (mm^3, mean ± SE): Day 15; for BWC (%, Mean ± SE) / T/C (%) / TV (mm^3, mean ± SE) / Number of Death / cCR (%) / pCR (%): Days 1-14, po; for cCR (%): clinical CR (TV=0); for pCR (%): pathological CR
Method: Tumor was removed approximately 1 month after subcutaneous transplantation and passage in a 6 week old male nude mouse (BALB/cAJc1-nu/nu, CLEA Japan, Inc.), and a fragment of approximately 2 mm square was prepared. A transplantation needle was filled with one fragment and subcutaneously inserted from around the right last rib of each nude mouse so as to enter the right back. The tumor was pushed out by pressing the inner syringe and thereby transplanted. For the measurement of the tumor size, electronic calipers were used. […] A tumor volume (TV) was calculated from this major axis and minor axis. A relative tumor volume change percentage (T/C) was calculated from the calculated tumor volume. TV and T/C were calculated according to the following equations:
as §6, §7, §8, §9
Nude mice having TV of 100 to 300 mm^3 were selected and assigned to groups each involving 6 animals by the equal number method [MiSTAT (ver. 2.0)] such that the means of TV were equal among the groups. […] An untreated group was used as a control.
as §11
When an individual of TV=0 was found, a complete response (hereinafter, CR) rate was also set as an evaluation item. For the judgement of CR, clinical CR (cCR) based on TV=0 and pathological CR (pCR) based on pathological test were used.
CR rate=(The number of CR individuals in a group found to have CR)/(Total number of individuals in the group found to have CR)×100

[9] = system: Human stomach cancer-derived tumor cells 4-1ST
Method: as §5, §6, §7, §8, §9, §10, §11
An untreated group was used as a control.

[10] = Day 15, Example 11 6.25 mg/kg/day, Days 1-14, po

C=CC(=O)N1C[C@H](n2c(C#CC)c(C(=O)N[C@H](C)c3ccccc3)c3c(N)ncnc32)C[C@@H]1C [Example 2, 7-((3R,5S)-1-acryloyl-5-methylpyrrolidin-3-yl)-4-amino-N—((R)-1-phenylethyl)-6-(prop-1-yn-1-yl)-7H-pyrrolo[2,3-d]pyrimidine-5-carboxamide]
body weight reduction of −20% or more [1]: not observed

C=CC(=O)N1C[C@H](n2c(C#CC3CC3)c(C(=O)N[C@H](C)c3ccccc3)c3c(N)ncnc32)C[C@@H]1C [Example 11, 7-((3R,5S)-1-acryloyl-5-methylpyrrolidin-3-yl)-4-amino-6-(cyclopropylethynyl)-N—((R)-1-phenylethyl)-7H-pyrrolo[2,3-d]pyrimidine-5-carboxamide]
IC50 [2]: 0.55 nM | IC50 [3]: 0.47 nM | IC50 [4]: 0.25 nM | IC50 [5]: 6.6 nM | body weight reduction of −20% or more [1]: not observed | IC50 [6]: 6.6 nM | BWC (%, Mean ± SE) ([7]; Example 11 6.25 mg/kg/day): 3.69 ± 0.75% | T/C (%) ([7]; Example 11 6.25 mg/kg/day): 22.0% | TV (mm^3, mean ± SE) ([7]; Example 11 6.25 mg/kg/day): 448.7 ± 79.0 mm^3 | BWC (%, Mean ± SE) ([7]; Example 11 12.5 mg/kg/day): 3.79 ± 1.07% | T/C (%) ([7]; Example 11 12.5 mg/kg/day): 3.0% | TV (mm^3, mean ± SE) ([7]; Example 11 12.5 mg/kg/day): 62.0 ± 6.9 mm^3 | Number of Deaths ([7]; Example 11 6.25 mg/kg/day): 0 | Number of Deaths ([7]; Example 11 12.5 mg/kg/day): 0 | TV on Day 15 versus control group (Dunnett's test) ([7]; trastuzumab iv Days 1 and 8 (except for the 20 mg/kg/day group), Example 11 po Days 1-14): significantly lower TV | BWC (%, Mean ± SE) ([8]; Example 11 6.25 mg/kg/day): 5.93 ± 0.25% | T/C (%) ([8]; Example 11 6.25 mg/kg/day): 17.3% | TV (mm^3, mean ± SE) ([8]; Example 11 6.25 mg/kg/day): 295.9 ± 67.3 mm^3 | BWC (%, Mean ± SE) ([8]; Example 11 12.5 mg/kg/day): 4.77 ± 1.14% | T/C (%) ([8]; Example 11 12.5 mg/kg/day): 1.9% | TV (mm^3, mean ± SE) ([8]; Example 11 12.5 mg/kg/day): 31.9 ± 10.7 mm^3 | Number of Death ([8]; Example 11 6.25 mg/kg/day): 0 | Number of Death ([8]; Example 11 12.5 mg/kg/day): 0 | TV on Day 15 versus control group (Dunnett's test) ([8]; T-mab and P-mab iv Day 1, Example 11 po Days 1-14): significantly lower TV | cCR (%) ([8]; Example 11 6.25 mg/kg/day): 0% | cCR (%) ([8]; Example 11 12.5 mg/kg/day): 33% | pCR (%) ([8]; Example 11 6.25 mg/kg/day): 0% | pCR (%) ([8]; Example 11 12.5 mg/kg/day): 33% | BWC (%, Mean ± SE) [9, 10]: 4.0 ± 0.7% | T/C (%) [9, 10]: 14.5% | TV (mm^3, mean ± SE) [9, 10]: 233.6 ± 42.6 mm^3 | Number of Death ([9]; Example 11 6.25 mg/kg/day, Days 1-14, po): 0 | TV on Day 15 versus control group (Dunnett's test) ([9]; trastuzumab emtansine iv Day 1, Example 11 po Days 1-14): significantly lower TV
